Data taken from PMC4667193 (Scientific Reports, 2015).

Legend:
[1] = system: rat primary hippocampal cell culture; assay: MTT viability assay, AEME-induced neurotoxicity; type: cell-based; conditions: 10 nM antagonist/inhibitor added 30 minutes prior to 10^−3 M AEME, 24 hours, % of control
Experimental: Neuronal viability was evaluated in the hippocampal cell culture using the 3-(4,5-dimethylthiazol-2-yl)-2,5-diphenyltetrazolium bromide (MTT; Sigma) reduction assay, with some modification. Briefly, after 24 hours of incubation with 10^−3 M AEME in the absence and in the presence of 10 nM pirenzepine hydrochloride (M1 selective antagonist; Sigma), 10 nM p-F-HHSiD (M3 selective antagonist; Sigma) and the specific inhibitor of different isoforms of PLC U73122 (10 nM)[55] (Sigma), all the medium was removed, and 100 μL of MTT solution, containing 5 mg/mL MTT in PBS and neurobasal medium without phenol red (1:9, v/v) were added. After 3 hours of incubation with MTT at 37 °C in a humidified atmosphere of 5% CO2, the MTT solution was removed and 200 μL of dimethyl sulfoxide was added to each well. After 30 minutes of shaking, the absorbance was measured at 570 nm in a multiwell plate reader (BioTek Synergy H1 Hybrid Reader). Potassium chloride (250 mM) was used as a positive control of neuronal death. Muscarinic antagonists, as well as the iPLC, were added 30 minutes prior to incubation with AEME. The antagonist concentration used was near the pKi[25][56]. A control containing 0.002% DMSO was used, since the iPLC stock solution was previously dissolved in this solvent. The assay was performed in quadruplicate, and the results were expressed as a percentage of the control value.

[2] = system: rat primary hippocampal cell culture; assay: total [^3H]inositol phosphate accumulation in hippocampal cells; type: cell-based; conditions: 10^−8 to 10^−3 M
Experimental: Hippocampal cells (1 × 10^6 cells/well) were allowed to equilibrate for 10 minutes with a nutrient solution of the following composition (mM): NaCl 157.00; KCl 5.60; CaCl2 0.27; MgCl2 3.00; NaHCO3 1.80; glucose 5.50 (pH 7.0–7.2) at 37 °C under constant shaking. Cells were incubated with 5 μCi of myo[^3H]inositol (specific activity 18.0 Ci/mmol) for 80 minutes, and lithium chloride (10 mM) for additional 30 minutes. Afterwards, the cells were incubated in the absence (basal level) and in the presence of carbachol (positive control) and AEME (10^−8 to 10^−3 M) for 10 minutes. Cells were removed from the plate using a 0.1 M NaOH solution and washed three times with nutrient solution, transferred to 2 mL of methanol:chloroform (2:1 v-v) at 4 °C and homogenized with a Ultra-Turrax T25 homogenizer at 9500 rpm. Chloroform (0.62 mL) and H2O (0.93 mL) were added to the homogenate, and the solution was centrifuged for 5 minutes at 1,000× g to separate aqueous and organic phases. Total [^3H]inositol phosphate was measured as previously described by Ascoli et al.[45] with slight modification. The aqueous layer was neutralized with 0.1 M HCl and then mixed with 1 mL anion-exchange resin (Dowex AG-X8, formate form, 200–400 mesh), allowed to equilibrate for 30 minutes at room temperature, under agitation, and centrifugated at 1,000× g, for 5 minutes at 4 °C. The resin was then washed sequentially, with 10 mM myo-inositol (2 mL) and 5 mM sodium tetraborate/60 mM sodium formate (2 mL). The resin was incubated for 30 minutes at room temperature with 2 mL of 0.1 M formic acid/1 M ammonium formate). The total [^3H]inositol phosphate was eluted and placed in scintillation vials containing OptiPhase HiSafe 3. The amount of radioactivity was determined in scintillation β-counter (LS 6500 IC, Beckman). Total [^3H]inositol phosphate was expressed as percentage above basal level.

**Q.** For `Cl.O[Si](CCCN1CCCCC1)(c1ccc(F)cc1)C1CCCCC1` (centres unmarked) [p-F-HHSiD, p-fluorohexahydro-sila-difenidol hydrochloride], which viable cells [1] is on record?
**A.** The viable cells was 85.4%.

**Q.** How did the “effect on total [^3H]inositol phosphate” value [2] turn out when `C[N+](C)(C)CCOC(N)=O` [carbachol, reference compound] was run?
**A.** Its value is “concentration-dependent increase”.

**Q.** And the “concentration giving maximum inositol phosphate accumulation” value ([2]; 10 minutes)?
**A.** Its value is 10^−5 M.

**Q.** Which viable cells [1] does the source give for `CN1CCN(CC(=O)N2c3ccccc3C(=O)Nc3cccnc32)CC1` [pirenzepine] here?
**A.** Its viable cells is 98.4%.

**Q.** With `COc1ccc2c(c1)CC[C@@H]1[C@@H]2CC[C@]2(C)[C@@H](NCCCCCCN3C(=O)C=CC3=O)CC[C@@H]12` [U73122] as the compound, how does the viable cells [1] read?
**A.** The viable cells was 102.6%.
